{"source": "patent US20120107333A1", "about": "“VANGL1 PEPTIDES AND VACCINES INCLUDING THE SAME” (Oncotherapy Science, Inc., priority 2009, published 2012)", "key": {"[1]": {"tested_on": "peptide-pulsed A24LCL cells", "assay": "IFN-gamma ELISPOT assay on CTLs induced with VANGL1 peptides", "assay_type": "cell-based, human", "conditions": "CTLs from HLA-A*2402 positive donor after 3rd peptide stimulation, day 21; compared to the control wells", "source_text": "(§1) Monocyte-derived dendritic cells (DCs) were used as antigen-presenting cells (APCs) to induce cytotoxic T lymphocyte (CTL) responses against peptides presented on human leukocyte antigen (HLA). DCs were generated in vitro as described elsewhere (Nakahara S et al., Cancer Res 2003 Jul. 15, 63(14): 4112-8). Specifically, peripheral blood mononuclear cells (PBMCs) isolated from a normal volunteer (HLA-A*2402 positive) by Ficoll-Plaque (Pharmacia) solution were separated by adherence to a plastic tissue culture dish (Becton Dickinson) so as to enrich them as the monocyte fraction. The monocyte-enriched population was cultured in the presence of 1,000 U/ml of granulocyte-macrophage colony-stimulating factor (GM-CSF) (R&D System) and 1,000 U/ml of interleukin (IL)-4 (R&D System) in AIM-V Medium (Invitrogen) containing 2% heat-inactivated autologous serum (AS). After 7 days of culture, the cytokine-induced DCs were pulsed with 20 micro-g/ml of each of the synthesized peptides in the presence of 3 micro-g/ml of beta 2-microglobulin for 3 hrs at 37 degrees C. in AIM-V Medium. The generated cells appeared to express DC-associated molecules, such as CD80, CD83, CD86 and HLA class II, on their cell surfaces (data not shown). These peptide-pulsed DCs were then inactivated by X-irradiation (20 Gy) and mixed at a 1:20 ratio with autologous CD8+ T cells, obtained by positive selection with CD8 Positive Isolation Kit (Dynal). These cultures were set up in 48-well plates (Corning); each well contained 1.5×10^4 peptide-pulsed DCs, 3×10^5 CD8+ T cells and 10 ng/ml of IL-7 (R&D System) in 0.5 ml of AIM-V/2% AS medium. Three days later, these cultures were supplemented with IL-2 (CHIRON) to a final concentration of 20 IU/ml. On days 7 and 14, the T cells were further stimulated with the autologous peptide-pulsed DCs. The DCs were prepared each time by the same way described above. CTL was tested against peptide-pulsed A24LCL cells after the 3rd round of peptide stimulation on day 21 (Tanaka H et al., Br J Cancer 2001 Jan. 5, 84(1): 94-9; Umano Y et al., Br J Cancer 2001 Apr. 20, 84(8): 1052-7; Uchida N et al., Clin Cancer Res 2004 Dec. 15, 10(24): 8577-86; Suda T et al., Cancer Sci 2006 May, 97(5): 411-9; Watanabe T et al., Cancer Sci 2005 August, 96(8): 498-506).\n(§2) To examine specific CTL activity, interferon (IFN)-gamma enzyme-linked immunospot (ELISPOT) assay and IFN-gamma enzyme-linked immunosorbent assay (ELISA) were performed. Specifically, peptide-pulsed A24LCL (1×10^4/well) was prepared as stimulator cells. Cultured cells in 48 wells were used as responder cells. IFN-gamma ELISPOT assay and IFN-gamma ELISA assay were performed under manufacture procedure."}, "[2]": {"tested_on": "peptide-pulsed A24LCL cells", "assay": "IFN-gamma ELISA assay of established CTL lines", "assay_type": "cell-based, human", "conditions": "target cells pulsed with corresponding peptide vs target cells without peptide pulse", "source_text": "as §1\nCTLs were expanded in culture using the method similar to the one described by Riddell et al. (Walter E A et al., N Engl J Med 1995 Oct. 19, 333(16): 1038-44; Riddell S R et al., Nat Med 1996 February, 2(2): 216-23). A total of 5×10^4 CTLs were suspended in 25 ml of AIM-V/5% AS medium with 2 kinds of human B-lymphoblastoid cell lines, inactivated by Mitomycin C, in the presence of 40 ng/ml of anti-CD3 monoclonal antibody (Pharmingen). One day after initiating the cultures, 120 IU/ml of IL-2 were added to the cultures. The cultures were fed with fresh AIM-V/5% AS medium containing 30 IU/ml of IL-2 on days 5, 8 and 11 (Tanaka H et al., Br J Cancer 2001 Jan. 5, 84(1): 94-9; Umano Y et al., Br J Cancer 2001 Apr. 20, 84(8): 1052-7; Uchida N et al., Clin Cancer Res 2004 Dec. 15, 10(24): 8577-86; Suda T et al., Cancer Sci 2006 May, 97(5): 411-9; Watanabe T et al., Cancer Sci 2005 August, 96(8): 498-506).\nas §2"}, "[3]": {"tested_on": "target cells pulsed peptide", "assay": "IFN-gamma ELISA assay of CTL clones established by limiting dilution", "assay_type": "cell-based, human", "conditions": "CTL clones against target cells pulsed peptide", "procedure": "The dilutions were made to have 0.3, 1, and 3 CTLs/well in 96 round-bottomed micro titer plate (Nalge Nunc International). CTLs were cultured with 1×10^4 cells/well of 2 kinds of human B-lymphoblastoid cell lines, 30 ng/ml of anti-CD3 antibody, and 125 U/ml of IL-2 in a total of […] of AIM-V Medium containing 5% AS. 50 micro-Dwell of IL-2 were added to the medium 10 days later so to reach a final concentration of 125 U/ml IL-2. CTL activity was tested on the 14th day, and CTL clones were expanded using the same method as described above (Uchida N et al., Clin Cancer Res 2004 Dec. 15, 10(24): 8577-86; Suda T et al., Cancer Sci 2006 May, 97(5): 411-9; Watanabe T et al., Cancer Sci 2005 August, 96(8): 498-506).\nas §2"}, "[4]": {"tested_on": "COS7 cells transfected with VANGL1 and HLA-A*2402", "assay": "Specific CTL activity against target cells exogenously expressing VANGL1 and HLA-A*2402", "assay_type": "cell-based, African green monkey", "source_text": "The cDNA encoding an open reading frame of target genes or HLA-A*2402 was amplified by PCR. The PCR-amplified product was cloned into pCAGGS vector. The plasmids were transfected into COS7, which is the target genes and HLA-A24-negative cell line, using lipofectamine 2000 (Invitrogen) according to the manufacturer's recommended procedures. After 2 days from transfection, the transfected cells were harvested with versene (Invitrogen) and used as the target cells (5×10^4 cells/well) for CTL activity assay.\nThe established CTL lines raised against these peptides were examined for their ability to recognize target cells that endogenously express VANGL1 and HLA-A*2402 molecule. Specific CTL activity against COS7 cells which transfected with both the full length of VANGL1 and HLA-A*2402 molecule gene (a specific model for the target cells that exogenously express VANGL1 and HLA-A*2402 gene) was tested using the CTL lines raised by corresponding peptide as the effecter cells. COS7 cells transfected with either full length of VANGL1 genes or HLA-A* 2402 were prepared as controls."}}, "note": "Non-standard residues stand in square brackets, D forms with d. No end group written: not given here."}
{"substance": "DFTIyNPNLL (DFTI[code y]NPNLL) [SEQ ID NO: 26]", "values": [{"measurement": "Peptide specific CTL activity: IFN-gamma production (ELISPOT)", "setting": "[1]", "value": "potent IFN-gamma production"}]}
{"substance": "HYLAiVLLEL (HYLA[code i]VLLEL) [SEQ ID NO: 18]", "values": [{"measurement": "Peptide specific CTL activity: IFN-gamma production (ELISPOT)", "setting": "[1]", "value": "potent IFN-gamma production"}, {"measurement": "CTL activity of CTL lines: IFN-gamma production (ELISA)", "setting": "[2]", "value": "potent IFN-gamma production"}, {"measurement": "IFN-gamma production from CTL clones (ELISA)", "setting": "[3]", "value": "Potent IFN-gamma productions"}]}
{"substance": "NYQGiVQYAV (NYQG[code i]VQYAV) [SEQ ID NO: 32]", "values": [{"measurement": "Peptide specific CTL activity: IFN-gamma production (ELISPOT)", "setting": "[1]", "value": "potent IFN-gamma production"}, {"measurement": "CTL activity of CTL lines: IFN-gamma production (ELISA)", "setting": "[2]", "value": "potent IFN-gamma production"}]}
{"substance": "VFRALLLVL [SEQ ID NO: 9]", "values": [{"measurement": "Peptide specific CTL activity: IFN-gamma production (ELISPOT)", "setting": "[1]", "value": "potent IFN-gamma production"}, {"measurement": "CTL activity of CTL lines: IFN-gamma production (ELISA)", "setting": "[2]", "value": "potent IFN-gamma production"}]}
{"substance": "VELTpIAFIL [SEQ ID NO: 22]", "values": [{"measurement": "Peptide specific CTL activity: IFN-gamma production (ELISPOT)", "setting": "[1]", "value": "potent IFN-gamma production"}, {"measurement": "CTL activity of CTL lines: IFN-gamma production (ELISA)", "setting": "[2]", "value": "potent IFN-gamma production"}, {"measurement": "IFN-gamma production from CTL clones (ELISA)", "setting": "[3]", "value": "Potent IFN-gamma productions"}]}
{"substance": "LFISmAFKLL (LFIS[code m]AFKLL) [SEQ ID NO: 25]", "values": [{"measurement": "Peptide specific CTL activity: IFN-gamma production (ELISPOT)", "setting": "[1]", "value": "potent IFN-gamma production"}, {"measurement": "CTL activity of CTL lines: IFN-gamma production (ELISA)", "setting": "[2]", "value": "potent IFN-gamma production"}]}
{"substance": "VFVFRALLL [SEQ ID NO: 8]", "values": [{"measurement": "Peptide specific CTL activity: IFN-gamma production (ELISPOT)", "setting": "[1]", "value": "potent IFN-gamma production"}, {"measurement": "CTL activity of CTL lines: IFN-gamma production (ELISA)", "setting": "[2]", "value": "potent IFN-gamma production"}, {"measurement": "IFN-gamma production from CTL clones (ELISA)", "setting": "[3]", "value": "Potent IFN-gamma productions"}]}
{"substance": "LFVVSYWLF [SEQ ID NO: 12]", "values": [{"measurement": "Peptide specific CTL activity: IFN-gamma production (ELISPOT)", "setting": "[1]", "value": "potent IFN-gamma production"}, {"measurement": "CTL activity of CTL lines: IFN-gamma production (ELISA)", "setting": "[2]", "value": "potent IFN-gamma production"}]}
{"substance": "RYLGLTVAS [SEQ ID NO: 11]", "values": [{"measurement": "Peptide specific CTL activity: IFN-gamma production (ELISPOT)", "setting": "[1]", "value": "potent IFN-gamma production"}, {"measurement": "CTL activity of CTL lines: IFN-gamma production (ELISA)", "setting": "[2]", "value": "potent IFN-gamma production"}]}
{"substance": "LFIHyLAIVL (LFIH[code y]LAIVL) [SEQ ID NO: 24]", "values": [{"measurement": "Peptide specific CTL activity: IFN-gamma production (ELISPOT)", "setting": "[1]", "value": "potent IFN-gamma production"}, {"measurement": "CTL activity of CTL lines: IFN-gamma production (ELISA)", "setting": "[2]", "value": "potent IFN-gamma production"}, {"measurement": "IFN-gamma production from CTL clones (ELISA)", "setting": "[3]", "value": "Potent IFN-gamma productions"}]}
{"substance": "RYLSAGPTL [SEQ ID NO: 1]", "values": [{"measurement": "Peptide specific CTL activity: IFN-gamma production (ELISPOT)", "setting": "[1]", "value": "potent IFN-gamma production"}, {"measurement": "CTL activity of CTL lines: IFN-gamma production (ELISA)", "setting": "[2]", "value": "potent IFN-gamma production"}, {"measurement": "Specific CTL activity", "setting": "[4]; COS7 cells expressing both VANGL1 and HLA-A*2402", "value": "potent CTL activity"}, {"measurement": "Specific CTL activity", "setting": "[4]; controls: COS7 cells transfected with either full length VANGL1 or HLA-A*2402", "value": "no significant specific CTL activity"}]}
